# Experimental data from US4855426A, “Process of preparing 1,5-epoxy-2,3,4,5-tetrahydro-1H-3-benzazepins” (Ortho Pharmaceutical Corporation, priority 1988, dated 1989).
# Structures can show the parent of a compound that is named as a salt. Where two headings read alike, the source gives them in different places.
# Tests used:
# acid output = experiment: Gastric Secretion, inhibition of acid output in pylorus ligated rats; assay type: in vivo, male Charles River Sprague Dawley derived rats; details: Rattus norvegicus, 4 h, intraduodenal, four hours
# Method: (§1) The inhibitory activity of the compounds on acid output was tested using pylorus ligation in a modification of the procedure of Shay, H., et al., Gastroenterology 26, 906 (1954). Basically, male Charles River Sprague Dawley derived rats weighing 150-300 grams were deprived of food but not water for 18-24 hours prior to use. Water was withheld during the experiment, however. The rats were weighed, anesthetized with ether and the pylorus ligated according to the method of Shay et al., supra. Treatment or vehicle control was then administered intraduodenally (i.d.). Rats were housed two/cage and sacrificed with CO2 four hours after ligation. The stomachs were removed, rinsed, and contents emptied into a graduated centrifuge tube. The tubes were centrifuged, the volume of gastric juice recorded, and any samples obviously contaminated by feces, food or blood were eliminated. A 1 ml aliquot of gastric juice was titrated with 0.1N NaOH to a pH of 7.0-7.4. The volume of gastric juice secreted, the acid concentration, and the product of the volume times the concentration, i.e., the total amount of acid secreted, were measured.
# Lesions = experiment: Cytoprotection, ethanol (necrotizing agent) induced lesions in rats; assay type: in vivo, male Charles River Sprague Dawley derived rats; details: oral, 50% EtOH one hour later
# Method: The cytoprotective activity of the compounds was tested using a modification of the method of Robert, A., et al., Gastroenterology 77, 433 (1979). Basically, male Charles River Sprague Dawley derived rats weighing between 140 and 220 g were fasted overnight, but allowed water ad libitum. They were deprived of water during the experiment, however. The rats were weighed and pretreated orally with the test compound in a dose volume of 1 ml/kg. One hour later, the necrotizing agent was administered orally, usually 50% EtOH, in a dose volume of 1 ml/animal. After an additional hour, the rats were sacrificed with CO2, the stomachs removed, inflated with distilled water, opened along the greater curvature and laid out on a flat surface. The presence of mucosal bleeding and incidence of lesions were noted, and after wiping off the mucosa the presence of submucosal bleeding and incidence of lesions were also noted.
# parietal cells = experiment: Isolated Parietal Cell Assay, 14C-aminopyrine accumulation in histamine stimulated parietal cells; assay type: cell-based, rabbit; details: Oryctolagus cuniculus, 20 min, read-out: IC50, inhibition of 14C-AP accumulation in the histamine stimulated parietal cell
# Method: The isolated parietal cell assay was conducted using the procedures of Batzri, S., et al., Biochemica et Biophysica Acta 508, 328 (1978) and Soll, A. H., Am. J. Physiol. 238, G366 (1980). Basically, parietal cells were isolated from the fundic mucosa of rabbit stomachs by a four-stage collagenase digestion process. The supernatant fraction from the last two stages of this process contain the individual parietal cells. This cell suspension was centrifuged and reconstituted in a modified Hank's buffer to contain 2-3×10^6 cells/ml. […] The accumulation was stimulated by histamine and was blocked by H2 antagonists. The cells were incubated with 0.5×10^6 cpm ^14 C-AP, with various concentrations of histamine, 1×10^-5 M isobutylmethylxanthine, and the test compound added in a 20 μl volume of buffer or DMSO. The flasks were incubated in a shaking water bath at 37° C. for 20 minutes. Two aliquots were then taken from each flask and cell pellets were collected by centrifugation. The pellets were solubilized with Protosol (New England Nuclear) and radioactivity determined by liquid scintillation spectrometry. Data is presented as the IC50, the concentration of compound required to inhibit ^14 C-AP accumulation in the histamine stimulated parietal cell by 50%.
# Gastric Secretion = experiment: Gastric Secretion, betazole stimulated, dogs with total gastric fistulas; assay type: in vivo, Female dogs; details: gastric fistula dogs
# Source text: This is a secondary test used to follow-up compounds which have shown gastric antisecretory activity in the four-hour pylorus ligated rat (Example 42). Female dogs were surgically prepared with total gastric fistulas and allowed to recover.
# Pepsin = experiment: In Vivo Pepsin Assay, radioenzymatic, gastric juice of pylorus ligated rat
# Method: as §1
# Pepsin activity was measured by a radioenzymatic assay. An aliquot of a 1:1000 dilution of rat gastric juice was incubated with the substrate solution (containing methyl-^14 C-methylated methemoglobin and nonradioactive methemoglobin in 10 mM sodium citrate buffer, pH 3.0) for a period of ten minutes at 37° C. After this time, trichloroacetic acid was added to stop the reaction and to precipitate the unreacted substrate. After removal of the precipitate by centrifugation, an aliquot of the supernatant fraction is quantitated for radioactivity by liquid scintillation spectrometry. Rat gastric juice samples were obtained after drug administration in the pylorus ligated rat (Example 42). Data is presented as the percent inhibition of pepsin activity in drug treated gastric samples compared to enzyme activity observed for control gastric juice samples. […]
# [1] = rabbit parietal cells, 37° C., 20 minutes, 1×10^-5 M isobutylmethylxanthine
smiles,measurement,setting,value
"FC(F)(F)c1cccc(C23CNCC(O2)c2ccccc23)c1 (stereo not shown) [Example 2, 1,5-Epoxy-1-[(3-trifluoromethyl)phenyl]-1,2,4,5-tetrahydro-3-benzazepin oxalate]",inhibition in vivo at 25 mg/kg,acid output,71%
same,"% Inhibition of Lesions, Mucosa",Lesions; 25 mg/kg,56%
same,"% Inhibition of Lesions, Submucosa",Lesions; 25 mg/kg,56%
same,IC50,parietal cells,3.5 µM
same,% Inhibition of Gastric Secretion,Gastric Secretion; 2 mg/kg (ig),53%
same,% Inhibition of Gastric Secretion,Gastric Secretion; 40 mg/kg (route not given),75%
"FC(F)(F)c1cccc(C23CN(CCCN4CCOCC4)CC(O2)c2ccccc23)c1 (stereo not shown) [Example 3, 1,5-Epoxy-3-[N-(3-morpholinopropyl)-1-[(3-trifluoromethyl)phenyl]-1,2,4,5-tetrahydro-3-benzazepin dioxalate]",inhibition in vivo at 25 mg/kg,acid output,48%
"FC(F)(F)c1cccc(C23CN(CCCOc4cccc(CN5CCCCC5)c4)CC(O2)c2ccccc23)c1 (stereo not shown) [Example 4, 3-[3-[[3-(1-Piperidinyl)methyl]phenoxy]propyl]-1,5-epoxy-1-(3-trifluoromethyl)phenyl-1,2,4,5-tetrahydro-3-benzazepin dioxalate monohydrate]",inhibition in vivo at 40 mg/kg,acid output,46%
same,"% Inhibition of Lesions, Mucosa",Lesions; 10 mg/kg,70%
same,"% Inhibition of Lesions, Submucosa",Lesions; 10 mg/kg,80%
same,"% Inhibition of Lesions, Mucosa",Lesions; 20 mg/kg,88%
same,"% Inhibition of Lesions, Submucosa",Lesions; 20 mg/kg,100%
same,% Inhibition of Pepsin Activity,Pepsin; 40 mg/kg,52%
same,IC50,parietal cells; [1],4.5 µM
same,% Inhibition of Gastric Secretion,Gastric Secretion; 7.3 mg/kg (iv),85%
same,% Inhibition of Gastric Secretion,Gastric Secretion; 20 mg/kg (ig),48%
"CN(C)Cc1ccc(CSCCN2CC3OC(c4cccc(C(F)(F)F)c4)(C2)c2ccccc23)o1 (stereo not shown) [Example 5, 3-[2-[[[5-(Dimethylamino)methyl-2-furanyl]methylthio]ethyl]-1,5-epoxy-1-[3-trifluoromethyl)phenyl-1,2,4,5-tetrahydro-3-benzazepin dioxalate]",inhibition in vivo at 20 mg/kg,acid output,46%
same,"% Inhibition of Lesions, Mucosa",Lesions; 10 mg/kg,10%
same,"% Inhibition of Lesions, Submucosa",Lesions; 10 mg/kg,30%
same,% Inhibition of Pepsin Activity,Pepsin; 20 mg/kg,28-43%
same,IC50,parietal cells; [1],1 to 1.3 µM
"c1ccc(C23CNCC(O2)c2ccccc23)cc1 (stereo not shown) [Example 7, 1,5-Epoxy-1-phenyl-1,2,4,5-tetrahydro-3-benzazepin]",inhibition in vivo at 50 mg/kg,acid output,68%
"c1ccc(C23CN(CCCOc4cccc(CN5CCCCC5)c4)CC(O2)c2ccccc23)cc1 (stereo not shown) [Example 11, 3-[3-[[3-(1-Piperidinyl)methyl]methyl]phenoxy]propyl]-1,5-epoxy-1-phenyl-1,2,4,5-tetrahydro-3-benzazepin dioxalate hemihydrate]",inhibition in vivo at 40 mg/kg,acid output,39%
same,"% Inhibition of Lesions, Mucosa",Lesions; 40 mg/kg,80%
same,"% Inhibition of Lesions, Submucosa",Lesions; 40 mg/kg,100%
same,% Inhibition of Pepsin Activity,Pepsin; 40 mg/kg,30%
same,IC50,parietal cells; [1],3.5 µM
"CN(C)Cc1ccc(CSCCN2CC3OC(c4ccccc4)(C2)c2ccccc23)o1 (stereo not shown) [Example 12, 3-[2-[[[5-(Dimethylamino)methyl-2-furanyl]methylthio]ethyl]-1,5-epoxy-1-phenyl-1,2,4,5-tetrahydro-3-benzazepin dioxalate hemihydrate]","% Inhibition of Lesions, Mucosa",Lesions; 10 mg/kg,20%
same,"% Inhibition of Lesions, Submucosa",Lesions; 10 mg/kg,11%
same,IC50,parietal cells; [1],0.25 to 0.37 µM
"C=CCN1CC2OC(C1)c1cc(Cl)ccc12 (stereo not shown) [Example 13, 3-Allyl-7-chloro-1,5-epoxy-1,2,4,5-tetrahydro-3-benzazepin oxalate.1/4H2 O]",inhibition in vivo at 50 mg/kg,acid output,33%
"Clc1ccc2c(c1)C1CNCC2O1 (stereo not shown) [Example 14, 7-Chloro-1,5-epoxy-1,2,4,5-tetrahydro-3-benzazepin oxalate.1/4H2 O]",inhibition in vivo at 50 mg/kg,acid output,40%
"c1ccc(CN2CC3OC(C2)c2ccccc23)cc1 [Example 18, 3-Benzyl-1,5-epoxy-1,2,4,5-tetrahydro-3-benzazepin oxalate]",inhibition in vivo at 50 mg/kg,acid output,23%
"c1ccc2c(c1)C1CN(CCCN3CCOCC3)CC2O1 [Example 22, 1,5-Epoxy-3-[N-(3-morpholinopropyl)]-1,2,4,5-tetrahydro-3-benzazepin dioxalate]",inhibition in vivo at 50 mg/kg,acid output,33%
"c1ccc2c(c1)C1CNCC2(C2OCCO2)O1 (stereo not shown) [Example 30, 1-(1,3-Dioxolan-2-yl)-1,5-epoxy-1,2,4,5-tetrahydro-3-benzazepin]",inhibition in vivo at 50 mg/kg,acid output,23%
"COc1cc2c(cc1OC)C1CN(CCSCc3ccc(CN(C)C)o3)CC2O1 [Example 36, 3-[2-[[[5-(Dimethylamino)methyl-2-furanyl]methylthio]ethyl]-1,5-epoxy-7,8-dimethoxy-1,2,4,5-tetrahydro-3-benzazepin dioxalate monohydrate]",inhibition in vivo at 20 mg/kg,acid output,26%
same,IC50,parietal cells; [1],30 µM
